Source: patent US8008291B2 (Mimetica Pty Ltd, priority 2008, dated 2011)
pIC50: −log10 of the molar value.

Target: T1, human MC5R (hMC5R) (Homo sapiens, UniProt P33032)
T1 construct: purchased Perkin Elmer RBXMC5M400UA
Test: Human MC5R radioligand binding assay (membranes, [125I] NDP-MSH displacement)
Settings: hMC5R binding; tested as trifluoroacetate or hydrochloride salts, or free bases; read-out: MC5R radioligand IC50
Method in brief: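 Displacement of [125I]NDP-MSH (radioiodinated in house, HPLC-purified) from hMC5R membranes by test compound measured after 1 hr incubation at 37° C.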

T1 sequence (P33032 whole entry): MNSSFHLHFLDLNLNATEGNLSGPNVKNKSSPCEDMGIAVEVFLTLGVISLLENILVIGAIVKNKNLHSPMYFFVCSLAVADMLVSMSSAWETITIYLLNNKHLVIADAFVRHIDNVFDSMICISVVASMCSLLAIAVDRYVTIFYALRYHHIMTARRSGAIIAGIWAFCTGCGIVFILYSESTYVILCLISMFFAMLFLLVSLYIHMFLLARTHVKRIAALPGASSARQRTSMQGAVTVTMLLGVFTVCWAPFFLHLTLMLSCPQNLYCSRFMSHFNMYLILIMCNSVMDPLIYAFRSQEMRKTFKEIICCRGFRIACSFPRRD

Structure (SMILES) | pIC50
C[C@@H](CN1CC[C@@H](CNC(=O)c2ccc3ccccc3c2)N[C@@H](CCN)C1=O)c1ccc(Cl)cc1 [Compound 421, N-(((3S,5S)-3-(2-aminoethyl)-1-((R)-2-(4-chlorophenyl)propyl)-2-oxo-1,4-diazepan-5-yl)methyl)-2-naphthamide] | > 5.00
NCCC[C@@H]1N[C@H](CNC(=O)COc2ccc(F)cc2)CCN(CC(c2ccccc2)c2ccccc2)C1=O [Compound 233, N-(((3S,5S)-3-(3-aminopropyl)-1-(2,2-diphenylethyl)-2-oxo-1,4-diazepan-5-yl)methyl)-2-(4-fluorophenoxy)acetamide] | > 6.00
CC(C)NCC[C@@H]1N[C@H](CNC(=O)c2ccc(Cl)c(Cl)c2)CCN(CC(c2ccccc2)c2ccccc2)C1=O [Compound 383, 3,4-dichloro-N-(((3S,5S)-1-(2,2-diphenylethyl)-3-(2-(isopropylamino)ethyl)-2-oxo-1,4-diazepan-5-yl)methyl)benzamide] | > 6.00
Cc1ccc(/C=C/C(=O)NC[C@@H]2CCN(CC(c3ccccc3)c3ccccc3)C(=O)[C@H](CCCNC(=O)C3CCCCC3)N2)cc1 [Compound 294, N-(3-((2S,7S)-4-(2,2-diphenylethyl)-3-oxo-7-(((E)-3-p-tolylacrylamido)methyl)-1,4-diazepan-2-yl)propyl)cyclohexanecarboxamide] | > 6.00
CCC(CC)CN1CC[C@@H](CNC(=O)c2ccc3cc(F)ccc3c2)N[C@@H](CCN)C1=O [Compound 369, N-(((3S,5S)-3-(2-aminoethyl)-1-(2-ethylbutyl)-2-oxo-1,4-diazepan-5-yl)methyl)-6-fluoro-2-naphthamide] | > 6.00
CC[C@H](CN1CC[C@@H](CNC(=O)c2ccc(Cl)c(Cl)c2)N[C@@H](CCN2C(=O)CC(C)(C)C2=O)C1=O)c1ccccc1 [Compound 492, 3,4-dichloro-N-(((3S,5S)-3-(2-(3,3-dimethyl-2,5-dioxopyrrolidin-1-yl)ethyl)-2-oxo-1-((S)-2-phenylbutyl)-1,4-diazepan-5-yl)methyl)benzamide] | > 5.00
CC1CC(C)CC(CN2CC[C@@H](CNC(=O)/C=C/c3ccc(Cl)cc3)N[C@@H](CCN)C2=O)C1 (stereo partly drawn) [Compound 377, (E)-N-(((3S,5S)-3-(2-aminoethyl)-1-((3,5-dimethylcyclohexyl)methyl)-2-oxo-1,4-diazepan-5-yl)methyl)-3-(4-chlorophenyl)acrylamide] | > 6.00
NCCCC[C@@H]1N[C@H](CNC(=O)[C@@H]2Cc3ccccc3CN2)CCN(CC(c2ccccc2)c2ccccc2)C1=O [Compound 127, (S)—N-(((3S,5S)-3-(4-aminobutyl)-1-(2,2-diphenylethyl)-2-oxo-1,4-diazepan-5-yl)methyl)-1,2,3,4-tetrahydroisoquinoline-3-carboxamide] | > 5.00
O=C(/C=C/c1ccc(OC(F)(F)F)c(F)c1)NC[C@@H]1CCN(Cc2cc(Cl)cc(Cl)c2)C(=O)[C@H](CCN2CCCCC2)N1 [Compound 536, (E)-N-(((3S,5S)-1-(3,5-dichlorobenzyl)-2-oxo-3-(2-(piperidin-1-yl)ethyl)-1,4-diazepan-5-yl)methyl)-3-(3-fluoro-4-(trifluoromethoxy)phenyl)acrylamide] | > 7.00

The next lines start with the values.

pIC50 | Structure (SMILES)
> 7.00 | CCC(CC)CN1CC[C@@H](CNC(=O)c2ccc3cc(Cl)ccc3c2)N[C@@H](CCN2CCCCC2)C1=O [Compound 373, 6-chloro-N-(((3S,5S)-1-(2-ethylbutyl)-2-oxo-3-(2-(piperidin-1-yl)ethyl)-1,4-diazepan-5-yl)methyl)-2-naphthamide]
> 7.00 | CC[C@H](CN1CC[C@@H](CNC(=O)c2ccc(Cl)c(Cl)c2)N[C@@H](CCN2CCOCC2)C1=O)c1ccccc1 [Compound 427, 3,4-dichloro-N-(((3S,5S)-3-(2-morpholinoethyl)-2-oxo-1-((S)-2-phenylbutyl)-1,4-diazepan-5-yl)methyl)benzamide]
> 7.00 | CC[C@H](CN1CC[C@@H](CNC(=O)c2ccc(Cl)c(Cl)c2)N[C@@H](CCN(CC)CC)C1=O)c1ccccc1 [Compound 426, 3,4-dichloro-N-(((3S,5S)-3-(2-(diethylamino)ethyl)-2-oxo-1-((S)-2-phenylbutyl)-1,4-diazepan-5-yl)methyl)benzamide]
> 7.00 | CC[C@@H](CN1CC[C@@H](CNC(=O)c2ccc3ccccc3c2)N[C@@H](CCN2CCCCC2)C1=O)c1ccccc1 [Compound 39, N-(((3S,5S)-2-oxo-1-((R)-2-phenylbutyl)-3-(2-(piperidin-1-yl)ethyl)-1,4-diazepan-5-yl)methyl)-2-naphthamide]
> 7.00 | CC[C@H](CN1CC[C@@H](CNC(=O)c2ccc(Cl)c(Cl)c2)N[C@@H](CCN2CCC(O)CC2)C1=O)c1ccccc1 [Compound 450, 3,4-dichloro-N-(((3S,5S)-3-(2-(4-hydroxypiperidin-1-yl)ethyl)-2-oxo-1-((S)-2-phenylbutyl)-1,4-diazepan-5-yl)methyl)benzamide]
> 7.00 | O=C(NC[C@@H]1CCN(CC(c2ccccc2)c2ccccc2)C(=O)[C@H](CCCNC2CCCC2)N1)c1ccc2ccccc2c1 [Compound 246, N-(((3S,5S)-3-(3-(cyclopentylamino)propyl)-1-(2,2-diphenylethyl)-2-oxo-1,4-diazepan-5-yl)methyl)-2-naphthamide]
> 7.00 | N=C(N)NCCC[C@@H]1N[C@H](CNC(=O)c2ccc(-c3ccccc3)cc2)CCN(CC(c2ccccc2)c2ccccc2)C1=O [Compound 108, N-(((3S,5S)-1-(2,2-diphenylethyl)-3-(3-guanidinopropyl)-2-oxo-1,4-diazepan-5-yl)methyl)biphenyl-4-carboxamide]
> 7.00 | CCC(CC)CN1CC[C@@H](CNC(=O)c2ccc3ccccc3c2)N[C@@H](CCN2CCCCC2)C1=O [Compound 333, N-(((3S,5S)-1-(2-ethylbutyl)-2-oxo-3-(2-(piperidin-1-yl)ethyl)-1,4-diazepan-5-yl)methyl)-2-naphthamide]
> 7.00 | CC[C@H](CN1CC[C@@H](CNC(=O)c2ccc3cc(Cl)ccc3c2)N[C@@H](CCN2CCCCC2)C1=O)C(C)C [Compound 472, 6-chloro-N-(((3S,5S)-1-((S)-2-ethyl-3-methylbutyl)-2-oxo-3-(2-(piperidin-1-yl)ethyl)-1,4-diazepan-5-yl)methyl)-2-naphthamide]
> 8.00 | O=C(/C=C/c1ccc(Br)cc1)NC[C@@H]1CCN(CC(c2ccccc2)c2ccccc2)C(=O)[C@H](CCN2CCCCC2)N1 [Compound 413, (E)-3-(4-bromophenyl)-N-(((3S,5S)-1-(2,2-diphenylethyl)-2-oxo-3-(2-(piperidin-1-yl)ethyl)-1,4-diazepan-5-yl)methyl)acrylamide]
> 7.00 | CC[C@H](CN1CC[C@@H](CNC(=O)c2ccc(Cl)c(Cl)c2)N[C@@H](CCN2CCC(C(=O)O)CC2)C1=O)c1ccccc1 [Compound 451, 1-(2-((2S,7S)-7-((3,4-dichlorobenzamido)methyl)-3-oxo-4-((S)-2-phenylbutyl)-1,4-diazepan-2-yl)ethyl)piperidine-4-carboxylic acid]
> 8.00 | O=C(NC[C@@H]1CCN(CC(c2ccccc2)c2ccccc2)C(=O)[C@H](CCN2CCCCC2)N1)c1ccc2cc(Cl)ccc2c1 [Compound 378, 6-chloro-N-(((3S,5S)-1-(2,2-diphenylethyl)-2-oxo-3-(2-(piperidin-1-yl)ethyl)-1,4-diazepan-5-yl)methyl)-2-naphthamide]
